Laboratory results published in US9926282B2, “Phthalazinones and isoquinolinones as rock inhibitors” (BRISTOL-MYERS SQUIBB COMPANY, priority 2013, dated 2018).
Read-outs that look alike come from different tables or passages of the source.

Experiments:
[1] = target: ROCK2 (Homo sapiens (Human), UniProt O75116); assay: ROCK assay (LABCHIP peptide phosphorylation), ROCK2; type: biochemical; settings: 5 μM ATP, 1.5 μM peptide substrate
[2] = target: ROCK1 (Homo sapiens (Human), UniProt Q13464); assay: ROCK assay (LABCHIP peptide phosphorylation), ROCK1; type: biochemical
[3] = 5 μM ATP, 1.5 μM peptide substrate, read-out: ROCK1 IC50

ROCK2, sequence (O75116 whole entry, species assumed): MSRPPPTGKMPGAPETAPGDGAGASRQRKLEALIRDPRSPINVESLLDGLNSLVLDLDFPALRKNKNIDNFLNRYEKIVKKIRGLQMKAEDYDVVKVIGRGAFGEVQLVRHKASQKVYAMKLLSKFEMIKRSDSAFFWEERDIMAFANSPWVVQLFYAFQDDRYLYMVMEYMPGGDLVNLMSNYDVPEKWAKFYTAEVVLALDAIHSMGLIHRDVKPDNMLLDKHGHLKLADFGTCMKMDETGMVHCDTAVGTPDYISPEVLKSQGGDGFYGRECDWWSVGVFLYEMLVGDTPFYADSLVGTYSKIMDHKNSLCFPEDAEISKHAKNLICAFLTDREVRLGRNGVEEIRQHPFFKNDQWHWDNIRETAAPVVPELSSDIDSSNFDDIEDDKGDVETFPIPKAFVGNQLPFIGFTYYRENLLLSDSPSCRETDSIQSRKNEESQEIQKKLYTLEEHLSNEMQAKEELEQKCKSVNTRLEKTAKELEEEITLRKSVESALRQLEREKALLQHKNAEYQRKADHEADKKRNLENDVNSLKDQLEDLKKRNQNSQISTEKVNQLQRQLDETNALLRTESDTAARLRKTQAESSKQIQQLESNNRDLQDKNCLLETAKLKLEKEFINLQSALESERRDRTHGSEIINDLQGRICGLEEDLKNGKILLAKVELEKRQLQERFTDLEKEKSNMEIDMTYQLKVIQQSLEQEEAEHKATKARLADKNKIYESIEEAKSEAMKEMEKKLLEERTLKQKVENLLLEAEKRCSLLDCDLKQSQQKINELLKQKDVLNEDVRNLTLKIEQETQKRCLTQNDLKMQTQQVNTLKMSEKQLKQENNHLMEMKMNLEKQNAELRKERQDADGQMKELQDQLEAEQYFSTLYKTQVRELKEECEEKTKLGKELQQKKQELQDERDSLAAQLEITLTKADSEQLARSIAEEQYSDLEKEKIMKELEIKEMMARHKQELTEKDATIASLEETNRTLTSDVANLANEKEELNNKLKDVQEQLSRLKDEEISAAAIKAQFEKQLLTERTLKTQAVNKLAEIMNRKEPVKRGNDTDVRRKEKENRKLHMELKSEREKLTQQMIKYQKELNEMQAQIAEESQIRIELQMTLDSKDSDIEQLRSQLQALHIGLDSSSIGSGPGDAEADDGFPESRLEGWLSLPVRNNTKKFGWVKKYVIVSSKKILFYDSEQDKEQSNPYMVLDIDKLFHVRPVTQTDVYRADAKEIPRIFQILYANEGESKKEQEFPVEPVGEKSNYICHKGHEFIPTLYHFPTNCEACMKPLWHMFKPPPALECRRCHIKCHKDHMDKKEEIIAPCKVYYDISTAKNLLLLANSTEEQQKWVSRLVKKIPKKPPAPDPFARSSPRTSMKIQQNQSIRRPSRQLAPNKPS
ROCK1, sequence (Q13464 whole entry, species assumed): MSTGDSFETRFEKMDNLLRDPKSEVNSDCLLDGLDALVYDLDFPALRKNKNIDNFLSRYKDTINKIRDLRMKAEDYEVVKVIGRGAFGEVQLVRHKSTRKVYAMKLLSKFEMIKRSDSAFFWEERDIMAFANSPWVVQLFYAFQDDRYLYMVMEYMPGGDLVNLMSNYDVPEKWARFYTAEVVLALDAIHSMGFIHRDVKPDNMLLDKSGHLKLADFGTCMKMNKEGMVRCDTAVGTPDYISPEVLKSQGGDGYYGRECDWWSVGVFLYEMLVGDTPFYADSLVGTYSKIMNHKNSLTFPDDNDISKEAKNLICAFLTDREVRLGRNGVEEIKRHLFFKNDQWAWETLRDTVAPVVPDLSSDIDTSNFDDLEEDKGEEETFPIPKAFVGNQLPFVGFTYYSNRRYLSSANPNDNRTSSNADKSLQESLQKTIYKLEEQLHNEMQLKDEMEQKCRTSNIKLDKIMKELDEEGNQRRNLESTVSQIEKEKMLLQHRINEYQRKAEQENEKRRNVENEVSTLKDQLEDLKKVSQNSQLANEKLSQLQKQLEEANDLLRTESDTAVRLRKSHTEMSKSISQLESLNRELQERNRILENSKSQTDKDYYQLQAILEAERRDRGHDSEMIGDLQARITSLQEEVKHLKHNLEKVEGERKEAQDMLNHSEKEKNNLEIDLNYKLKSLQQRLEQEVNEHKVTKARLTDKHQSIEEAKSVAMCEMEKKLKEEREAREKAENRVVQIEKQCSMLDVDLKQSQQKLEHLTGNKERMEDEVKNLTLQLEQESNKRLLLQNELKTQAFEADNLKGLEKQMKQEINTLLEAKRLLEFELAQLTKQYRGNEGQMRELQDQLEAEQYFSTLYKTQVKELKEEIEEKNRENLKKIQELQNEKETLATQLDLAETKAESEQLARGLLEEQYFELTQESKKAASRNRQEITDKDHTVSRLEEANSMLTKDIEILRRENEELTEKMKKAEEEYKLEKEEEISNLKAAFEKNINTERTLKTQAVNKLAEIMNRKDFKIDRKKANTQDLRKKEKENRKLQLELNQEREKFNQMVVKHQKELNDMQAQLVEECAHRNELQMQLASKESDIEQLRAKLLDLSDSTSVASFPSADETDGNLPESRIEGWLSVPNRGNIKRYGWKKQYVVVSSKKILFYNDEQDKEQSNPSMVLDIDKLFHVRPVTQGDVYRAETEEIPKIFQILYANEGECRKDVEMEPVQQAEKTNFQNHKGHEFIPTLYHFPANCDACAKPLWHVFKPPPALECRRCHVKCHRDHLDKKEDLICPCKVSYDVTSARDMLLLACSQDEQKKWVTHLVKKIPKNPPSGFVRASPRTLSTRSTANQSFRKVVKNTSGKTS

Structure (SMILES) | IC50 [1] [µM] | IC50 [2, 3] [µM] | IC50 [2] [µM]
O=C(Nc1ccc(-c2n[nH]c(=O)c3ccccc23)cc1)C1CC(=O)N(c2cccc(Cl)c2F)C1 (stereo not drawn) [Example 211, 1-(3-chloro-2-fluorophenyl)-5-oxo-N-[4-(4-oxo-3,4-dihydrophthalazin-1-yl)phenyl]pyrrolidine-3-carboxamide] | 0.101 to 1 | 1 to 50 | 
O=C(Nc1ccc(-c2n[nH]c(=O)c3ccccc23)cc1)c1n[nH]c(-c2ccccn2)n1 [Example 237, N-[4-(4-oxo-3,4-dihydrophthalazin-1-yl)phenyl]-5-(pyridin-2-yl)-1H-1,2,4-triazole-3-carboxamide] | 0.0001 to 0.1 | 0.101 to 1 | 
CN1CC[C@@H](Oc2ccc3c(c2)N(C(=O)Cc2ccc(-c4n[nH]c(=O)c5ccccc45)cc2)CC3)C1 [Example 277, 4-{4-[2-(6-{[(3R)-1-methylpyrrolidin-3-yl]oxy}-2,3-dihydro-1H-indol-1-yl)-2-oxoethyl]phenyl}-1,2-dihydrophthalazin-1-one] | 0.0001 to 0.1 | 0.101 to 1 | 
Cn1nc(C2CC2)cc1C(=O)Nc1ccc(-c2n[nH]c(=O)c3ccccc23)cc1 [Example 407, 3-Cyclopropyl-1-methyl-N-(4-(4-oxo-3,4-dihydrophthalazin-1-yl)phenyl)-1H-pyrazole-5-carboxamide] | 0.0001 to 0.1 | 0.0001 to 0.1 | 
O=C(Nc1ccc(-c2c[nH]c(=O)c3ccccc23)cc1)c1nc2c(s1)CCCC2 [Example 246, N-(4-(1-Oxo-1,2-dihydroisoquinolin-4-yl)phenyl)-4,5,6,7-tetrahydrobenzo[d]thiazole-2-carboxamide] | 0.0001 to 0.1 | 0.0001 to 0.1 | 
O=C(Nc1ccc(-c2n[nH]c(=O)c3ccccc23)cc1)C1CCN(Cc2ccccc2)C1 (stereo not drawn) [Example 59, 1-benzyl-N-[4-(4-oxo-3,4-dihydrophthalazin-1-yl)phenyl]pyrrolidine-3-carboxamide] | 1 to 50 | 1 to 50 | 
O=C(Nc1ccc(-c2n[nH]c(=O)c3ccccc23)cc1)c1cnn2ccc(OCCN3CCOCC3)cc12 [Example 187, 5-[2-(morpholin-4-yl)ethoxy]-N-[4-(4-oxo-3,4-dihydrophthalazin-1-yl)phenyl]pyrazolo[1,5-a]pyridine-3-carboxamide] | 0.0001 to 0.1 | 0.0001 to 0.1 | 
Cn1ccc(C(=O)Nc2ccc(-c3n[nH]c(=O)c4ccccc34)cc2)n1 [Example 227, 1-methyl-N-[4-(4-oxo-3,4-dihydrophthalazin-1-yl)phenyl]-1H-pyrazole-3-carboxamide] | 0.0001 to 0.1 | 0.101 to 1 | 
NC(=O)COc1ccc2c(c1)N(C(=O)Cc1ccc(-c3n[nH]c(=O)c4ccccc34)cc1)CC2 [Example 298, 2-((1-(2-(4-(4-Oxo-3,4-dihydrophthalazin-1-yl)phenyl)acetyl)indolin-6-yl)oxy)acetamide] | 0.0001 to 0.1 | 0.0001 to 0.1 | 
CN1CCN(c2ccc(C(=O)Nc3ccc(-c4n[nH]c(=O)c5ccccc45)cc3)cc2)CC1 [Example 64, 4-(4-methylpiperazin-1-yl)-N-[4-(4-oxo-3,4-dihydrophthalazin-1-yl)phenyl]benzamide] | 0.0001 to 0.1 | 0.101 to 1 | 
Cc1nn(-c2ccccc2)c(C)c1C(=O)Nc1ccc(-c2n[nH]c(=O)c3ccccc23)cc1 [Example 219, 3,5-dimethyl-N-[4-(4-oxo-3,4-dihydrophthalazin-1-yl)phenyl]-1-phenyl-1H-pyrazole-4-carboxamide] | 0.0001 to 0.1 | 0.0001 to 0.1 | 
CC(C)Oc1ccc2cc(C(=O)Nc3ccc(-c4n[nH]c(=O)c5ccccc45)cc3)[nH]c2c1 [Example 128, N-[4-(4-oxo-3,4-dihydrophthalazin-1-yl)phenyl]-6-(propan-2-yloxy)-1H-indole-2-carboxamide] | 0.0001 to 0.1 | 0.0001 to 0.1 | 
COc1ccccc1N1CCC(C(=O)Nc2ccc(-c3n[nH]c(=O)c4ccccc34)cc2)C1=O (stereo not drawn) [Example 216, 1-(2-methoxyphenyl)-2-oxo-N-[4-(4-oxo-3,4-dihydrophthalazin-1-yl)phenyl]pyrrolidine-3-carboxamide] | 0.101 to 1 | 1 to 50 | 
O=C(Nc1ccc(-c2n[nH]c(=O)c3ccccc23)cc1)c1nn(CC2CCCO2)c2ccccc12 (stereo not drawn) [Example 148, N-[4-(4-oxo-3,4-dihydrophthalazin-1-yl)phenyl]-1-(oxolan-2-ylmethyl)-1H-indazole-3-carboxamide] | 0.0001 to 0.1 | 0.0001 to 0.1 | 
CN1CCN(Cc2ccc3c(c2)CN(C(=O)Oc2ccc(-c4n[nH]c(=O)c5ccccc45)cc2)C3)CC1 [Example 72, 4-(4-Oxo-3,4-dihydrophthalazin-1-yl)phenyl 5-((4-methylpiperazin-1-yl)methyl)isoindoline-2-carboxylate] | 0.0001 to 0.1 |  | 0.101 to 1
CCOc1ccc2c(c1)N(C(=O)Cc1ccc(-c3c[nH]c(=O)c4ccccc34)cc1)CC2 [Example 254, 4-(4-(2-(6-Ethoxyindolin-1-yl)-2-oxoethyl)phenyl)isoquinolin-1(2H)-one] | 0.0001 to 0.1 | 0.101 to 1 | 
O=C(Cc1ccc(-c2n[nH]c(=O)c3ccccc23)cc1)N1CCc2ccc(OCc3ccccn3)cc21 [Example 271, 4-(4-{2-oxo-2-[6-(pyridin-2-ylmethoxy)-2,3-dihydro-1H-indol-1-yl]ethyl}phenyl)-1,2-dihydrophthalazin-1-one] | 0.0001 to 0.1 | 0.0001 to 0.1 | 

Structure (SMILES) | IC50 [1] [µM] | IC50 [2, 3] [µM] | IC50 [2] [µM]
O=C(Nc1ccc(-c2n[nH]c(=O)c3ccccc23)cc1)c1nn(CC2CCN(C(=O)OCCF)CC2)c2ccccc12 [Example 350, 2-Fluoroethyl 4-[(3-{[4-(4-oxo-3,4-dihydrophthalazin-1-yl)phenyl]carbamoyl}-1H-indazol-1-yl)methyl]piperidine-1-carboxylate] | 0.0001 to 0.1 | 0.0001 to 0.1 | 
O=C(Cc1ccc(-c2n[nH]c(=O)c3ccccc23)cc1)N1CCc2ccc(O[C@H]3CCOC3)cc21 [Example 275, 4-[4-(2-oxo-2-(6-[(3S)-oxolan-3-yloxy]-2,3-dihydro-1H-indol-1-yl}ethyl)phenyl]-1,2-dihydrophthalazin-1-one] | 0.0001 to 0.1 | 0.0001 to 0.1 | 
O=C(Nc1ccc(-c2n[nH]c(=O)c3ccccc23)cc1)c1cnn(-c2ccccc2)c1 [Example 191, N-[4-(4-oxo-3,4-dihydrophthalazin-1-yl)phenyl]-1-phenyl-1H-pyrazole-4-carboxamide] | 0.0001 to 0.1 | 0.0001 to 0.1 | 
CC(C)n1nc(C(=O)Nc2ccc(-c3n[nH]c(=O)c4ccccc34)cc2)c2ccccc21 [Example 132, N-[4-(4-oxo-3,4-dihydrophthalazin-1-yl)phenyl]-1-(propan-2-yl)-1H-indazole-3-carboxamide] | 0.0001 to 0.1 | 0.0001 to 0.1 | 
Cc1cc(NC(=O)N2CCc3ccccc32)ccc1-c1n[nH]c(=O)c2ccccc12 [Example 324, N-(3-Methyl-4-(4-oxo-3,4-dihydrophthalazin-1-yl)phenyl)indoline-1-carboxamide] | 0.0001 to 0.1 | 0.0001 to 0.1 | 
O=C(Nc1ccc(-c2n[nH]c(=O)c3ccccc23)cc1)C1CCN(Cc2ccccc2)CC1 [Example 56, 1-benzyl-N-[4-(4-oxo-3,4-dihydrophthalazin-1-yl)phenyl]piperidine-4-carboxamide] | 1 to 50 | 1 to 50 | 
CC(C)(O)COc1ccc2c(c1)N(C(=O)Cc1ccc(-c3n[nH]c(=O)c4ccccc34)cc1)CC2 [Example 265, 4-(4-(2-(6-(2-Hydroxy-2-methylpropoxy)indolin-1-yl)-2-oxoethyl)phenyl)phthalazin-1(2H)-one] | 0.0001 to 0.1 | 0.0001 to 0.1 | 
COC(=O)COc1ccc2c(c1)N(C(=O)Cc1ccc(-c3n[nH]c(=O)c4ccccc34)cc1)CC2 [Example 283, methyl 2-[(1-{2-[4-(4-oxo-3,4-dihydrophthalazin-1-yl)phenyl]acetyl}-2,3-dihydro-1H-indol-6-yl)oxy]acetate] | 0.0001 to 0.1 | 0.0001 to 0.1 | 
Cc1cc(NC(=O)c2cn(CC(C)(C)O)c3ccccc23)ccc1-c1n[nH]c(=O)c2ccccc12 [Example 302, 1-(2-hydroxy-2-methylpropyl)-N-[3-methyl-4-(4-oxo-3,4-dihydrophthalazin-1-yl)phenyl]-1H-indole-3-carboxamide] | 0.0001 to 0.1 | 0.0001 to 0.1 | 
Cc1cn2cc(C(=O)Nc3ccc(-c4n[nH]c(=O)c5ccccc45)cc3)nc2cn1 [Example 121, 6-methyl-N-[4-(4-oxo-3,4-dihydrophthalazin-1-yl)phenyl]imidazo[1,2-a]pyrazine-2-carboxamide] | 0.0001 to 0.1 | 0.101 to 1 | 
COc1cc(NC(=O)c2nn(CC3CCOC3)c3ccccc23)ccc1-c1n[nH]c(=O)c2ccccc12 (stereo not drawn) [Example 348, N-(3-Methoxy-4-(4-oxo-3,4-dihydrophthalazin-1-yl)phenyl)-1-((tetrahydrofuran-3-yl)methyl)-1H-indazole-3-carboxamide] | 0.0001 to 0.1 | 0.101 to 1 | 
CN1CCN(Cc2ccc3c(c2)CN(C(=O)Cc2ccc(-c4n[nH]c(=O)c5ccccc45)cc2)C3)CC1 [Example 25] | 0.0001 to 0.1 | 0.101 to 1 | 
Cc1noc(-c2ccc(CO)cc2)c1C(=O)Nc1ccc(-c2n[nH]c(=O)c3ccccc23)cc1 [Example 224, 5-[4-(hydroxymethyl)phenyl]-3-methyl-N-[4-(4-oxo-3,4-dihydrophthalazin-1-yl)phenyl]-1,2-oxazole-4-carboxamide] | 0.0001 to 0.1 | 0.0001 to 0.1 | 
O=C(Cc1ccc(-c2n[nH]c(=O)c3ccccc23)cc1)N1CCc2ccc(C(F)(F)F)cc21 [Example 35, 4-(4-{2-oxo-2-[6-(trifluoromethyl)-2,3-dihydro-1H-indol-1-yl]ethyl}phenyl)-1,2-dihydrophthalazin-1-one] | 0.0001 to 0.1 | 0.101 to 1 | 
O=C(Nc1ccc(-c2n[nH]c(=O)c3ccccc23)cc1)c1c[nH]c2ccncc12 [Example 166, N-[4-(4-oxo-3,4-dihydrophthalazin-1-yl)phenyl]-1H-pyrrolo[3,2-c]pyridine-3-carboxamide] | 0.0001 to 0.1 | 0.101 to 1 | 
Cc1cc(NC(=O)c2c[nH]c3ncc(F)cc23)ccc1-c1n[nH]c(=O)c2ccccc12 [Example 308, 5-fluoro-N-[3-methyl-4-(4-oxo-3,4-dihydrophthalazin-1-yl)phenyl]-1H-pyrrolo [2,3-b]pyridine-3-carboxamide] | 0.0001 to 0.1 | 0.0001 to 0.1 | 
